Results taken from US8129355B2, “Ketone ligands for modulating the expression of exogenous genes via an ecdysone receptor complex” (priority 2002, dated 2012).

Tests used:
[1] = molecular target: T1, GAL4 DBD (1-147)-CfEcR(DEF)/VP16AD-βRXREF-LmUSPEF (Choristoneura fumiferana, UniProt O77240); test: 27-63 assay: luciferase reporter gene expression in stable CHO cell clone 27-63; conditions: for 27-63 Rel Max FI: maximum fold induction at any concentration relative to that of GS-E ligand; for CC50: read-out: 27-63 LC50, average, dose response, three-parameter logistic model; for Fold Induction Average, 27-63 Assay (33 μM): single dose 33 μM, RLU ligand treated / RLU DMSO treated cells
T1 sequence (O77240 191-513): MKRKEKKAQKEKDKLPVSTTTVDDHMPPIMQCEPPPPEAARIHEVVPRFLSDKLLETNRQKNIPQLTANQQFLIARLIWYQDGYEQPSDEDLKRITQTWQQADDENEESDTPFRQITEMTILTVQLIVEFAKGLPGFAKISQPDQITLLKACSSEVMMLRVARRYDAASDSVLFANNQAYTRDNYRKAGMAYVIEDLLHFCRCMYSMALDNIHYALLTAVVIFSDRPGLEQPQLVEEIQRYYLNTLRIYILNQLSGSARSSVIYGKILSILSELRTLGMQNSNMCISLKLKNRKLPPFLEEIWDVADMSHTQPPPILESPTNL
T1 sequence (P28702 296-455 partner limits assumed): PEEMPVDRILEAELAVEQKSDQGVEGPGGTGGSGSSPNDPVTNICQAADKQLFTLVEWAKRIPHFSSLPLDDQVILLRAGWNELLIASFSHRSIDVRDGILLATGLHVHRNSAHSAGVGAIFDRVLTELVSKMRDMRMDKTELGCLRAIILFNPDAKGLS
Description: GAL4 DBD (1-147)-CfEcR(DEF)/VP16AD-βRXREF-LmUSPEF: The wild-type D, E, and F domains from spruce budworm Choristoneura fumiferana EcR (“CfEcR-DEF”; SEQ ID NO: 1) were fused to a GAL4 DNA binding domain (“Gal4 DBD1-147”; nucleotides 31 to 471 of SEQ ID NO: 2) and placed under the control of a phosphoglycerate kinase promoter (“PGK”; SEQ ID NO: 3). Helices 1 through 8 of the EF domains from Homo sapiens RXRβ and helices 9 through 12 of the EF domains of Locusta migratoria Ultraspiracle Protein (“HsRXRβ-EF-LmUSP-EF”; SEQ ID NO: 4) were fused to the transactivation domain from VP16 (“VP16AD”; SEQ ID NO: 5) and placed under the control of an elongation factor-1α promoter (“EF-1α”; SEQ ID NO: 6). Five consensus GAL4 response element binding sites (“5XGAL4RE”; comprising 5 copies of a GAL4RE comprising SEQ ID NO: 7) were fused to a synthetic TATA minimal promoter (SEQ ID NO: 8) and placed upstream of the luciferase reporter gene (SEQ ID NO: 9).
CHO cells were transiently transfected with transcription cassettes for GAL4 DBD (1-147) CfEcR(DEF) and for VP16AD βRXREF-LmUSPEF controlled by ubiquitously active cellular promoters (PGK and EF-1α, respectively) on a single plasmid. Stably transfected cells were selected by Zeocin resistance. Individually isolated CHO cell clones were transiently transfected with a GAL4 RE-luciferase reporter (pFR Luc). 27-63 clone was selected using Hygromycin.
Cells were trypsinized and diluted to a concentration of 2.5×10^4 cells mL. 100 μL of cell suspension was placed in each well of a 96 well plate and incubated at 37° C. under 5% CO2 for 24 h. Ligand stock solutions were prepared in DMSO and diluted 300 fold for all treatments. Dose response testing consisted of 8 concentrations ranging from 33 μM to 0.01 μM.
Luciferase reporter gene expression was measured 48 h after cell treatment using Bright-Glo™ Luciferase Assay System from Promega (E2650). Luminescence was detected at room temperature using a Dynex MLX microtiter plate luminometer.
Fold inductions were calculated from single dose testing by dividing relative light units (RLU) in ligand treated cells by RLU in DMSO treated cells. BC50s were calculated from dose response data using a three-parameter logistic model.

[2] = molecular target: T2, GAL4 DBD-CfEcR(DEF)/VP16AD-MmRXRE (Choristoneura fumiferana, UniProt O77240); test: cell-based
T2 sequence (O77240 1-513): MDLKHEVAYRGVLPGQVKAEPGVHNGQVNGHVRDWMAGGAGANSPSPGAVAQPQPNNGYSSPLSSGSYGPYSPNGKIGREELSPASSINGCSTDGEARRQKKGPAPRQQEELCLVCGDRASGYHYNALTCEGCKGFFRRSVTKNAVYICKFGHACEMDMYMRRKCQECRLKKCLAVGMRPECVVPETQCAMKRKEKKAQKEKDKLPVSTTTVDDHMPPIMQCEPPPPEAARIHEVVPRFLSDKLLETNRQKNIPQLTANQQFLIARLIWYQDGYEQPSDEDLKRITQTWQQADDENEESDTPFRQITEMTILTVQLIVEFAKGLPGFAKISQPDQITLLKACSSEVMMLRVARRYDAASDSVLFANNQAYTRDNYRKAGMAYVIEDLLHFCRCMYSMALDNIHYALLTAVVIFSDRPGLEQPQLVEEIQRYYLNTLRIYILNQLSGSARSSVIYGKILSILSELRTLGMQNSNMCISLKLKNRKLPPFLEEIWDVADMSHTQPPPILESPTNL
Procedure, shortened: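 Stable CHO clone 13B3 expressing GAL4 DBD-CfEcR(DEF) and VP16AD-mouse RXR(DE) with GAL4 RE-luciferase reporter. Ligands tested at 8 concentrations, 33–0.01 μM; luciferase read 48 h after treatment. Fold induction versus DMSO; BC50 from three-parameter logistic fit.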

[3] = molecular target: T3, Bombyx mori EcR (VP16 fusion, switch construct CVBE) with 6XEcRE LacZ reporter (Bombyx mori, UniProt P49881); test: Z3 assay: β-galactosidase (LacZ) reporter gene fold induction in stably transformed human 293 kidney cells (clone Z3); format: cell-based; conditions: for CC50: average, dose response, three-parameter logistic model, read-out: Z3 LC50; for Z3 Rel Max FI: maximum fold induction at any concentration relative to that of GS-E ligand
T3 construct: expressed in transfected cells; host or cells: Human 293 kidney (HEK-293) cells, retrovirally infected, clone Z3
T3 sequence (P49881 86-606 limits assumed): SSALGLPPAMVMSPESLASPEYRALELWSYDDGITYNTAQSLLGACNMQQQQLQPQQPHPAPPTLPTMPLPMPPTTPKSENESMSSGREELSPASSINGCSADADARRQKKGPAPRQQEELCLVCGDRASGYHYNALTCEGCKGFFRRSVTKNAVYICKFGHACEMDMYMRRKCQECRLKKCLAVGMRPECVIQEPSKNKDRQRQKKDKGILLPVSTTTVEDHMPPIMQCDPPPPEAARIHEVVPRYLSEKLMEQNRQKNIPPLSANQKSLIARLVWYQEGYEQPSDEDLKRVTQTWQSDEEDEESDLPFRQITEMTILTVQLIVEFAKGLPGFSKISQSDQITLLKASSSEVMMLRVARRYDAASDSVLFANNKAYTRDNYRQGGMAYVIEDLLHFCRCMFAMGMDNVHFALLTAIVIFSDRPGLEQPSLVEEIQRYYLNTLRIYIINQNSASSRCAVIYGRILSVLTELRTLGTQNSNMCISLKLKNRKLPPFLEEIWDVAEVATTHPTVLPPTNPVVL
T3 sequence (P19793 1-462 partner): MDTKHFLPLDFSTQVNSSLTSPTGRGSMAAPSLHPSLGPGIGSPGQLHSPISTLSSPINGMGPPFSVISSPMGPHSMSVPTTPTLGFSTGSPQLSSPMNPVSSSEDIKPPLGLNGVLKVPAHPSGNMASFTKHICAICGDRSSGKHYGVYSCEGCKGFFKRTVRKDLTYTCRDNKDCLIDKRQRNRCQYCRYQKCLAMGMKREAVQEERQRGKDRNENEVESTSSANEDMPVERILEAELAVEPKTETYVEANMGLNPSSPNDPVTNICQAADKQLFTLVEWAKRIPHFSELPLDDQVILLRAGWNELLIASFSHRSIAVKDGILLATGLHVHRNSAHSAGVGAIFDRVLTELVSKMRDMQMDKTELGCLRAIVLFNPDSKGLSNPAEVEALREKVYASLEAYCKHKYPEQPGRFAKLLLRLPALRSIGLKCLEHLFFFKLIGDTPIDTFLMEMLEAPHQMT
Procedure, shortened: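 β-Galactosidase read 48 h after dosing by bioluminescent assay; ligand added at 33 μM with DMSO held at 0.03%. The cells are stable 293 clone Z3, expressing a CMV-driven VP16 fusion of Bombyx mori EcR residues 26-546 plus six EcRE copies upstream of lacZ.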

[4] = molecular target: T4, Gal4 DBD/AaEcR (DEF) with VP16-βRXR-E (Aedes aegypti, UniProt P49880); test: cell-based; format: cell-based; conditions: for Fold Induction Average, AA_3T3 Assay (33 μM): single dose 33 μM, RLU ligand treated / RLU DMSO treated cells; for LC50 (half-maximal ligand concentration for reporter induction): average, dose response 33 μM to 0.01 μM, three-parameter logistic model, read-out: AA_3T3 LC50; for AA_3T3 Rel Max FI: maximum fold induction at any concentration relative to that of GS-E ligand
T4 construct: The wildtype D, E, and F domains from mosquito Aedes aegypti EcR (“AaEcR-DEF”); expressed in transfected cells; host or cells: 3T3 cells, transient transfection (Superfect)
Experimental: 3T3 cells were trypsinized and plated at 2.5×10^3 cells/well on a 96-well plate. After incubation for 24 h at 37° C. under 5% CO2, cells were transfected with the Gal4 DBD/AaEcR (DEF) gene expression cassette and the reporter plasmid, pFRLuc, containing a 5XGAL4 response element and the firefly luciferase gene in serum free media using Superfect (Qiagen). After transfection for 4 h at 37° C., the cells were treated with ligand in serum media. […] Single dose testing was performed at 33 μM.

[5] = single dose 33 μM, ligand treated / DMSO treated cells

T4 sequence (P28704 286-520 A311G/G315S/G445S/I449V): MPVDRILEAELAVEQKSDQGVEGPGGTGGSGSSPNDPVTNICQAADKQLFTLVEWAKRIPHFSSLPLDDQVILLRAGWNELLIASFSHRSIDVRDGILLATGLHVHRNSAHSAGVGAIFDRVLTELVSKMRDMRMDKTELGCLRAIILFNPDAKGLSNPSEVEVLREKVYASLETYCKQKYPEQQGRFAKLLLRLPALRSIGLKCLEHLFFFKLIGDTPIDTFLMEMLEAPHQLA
T4 sequence (P49880 405-776): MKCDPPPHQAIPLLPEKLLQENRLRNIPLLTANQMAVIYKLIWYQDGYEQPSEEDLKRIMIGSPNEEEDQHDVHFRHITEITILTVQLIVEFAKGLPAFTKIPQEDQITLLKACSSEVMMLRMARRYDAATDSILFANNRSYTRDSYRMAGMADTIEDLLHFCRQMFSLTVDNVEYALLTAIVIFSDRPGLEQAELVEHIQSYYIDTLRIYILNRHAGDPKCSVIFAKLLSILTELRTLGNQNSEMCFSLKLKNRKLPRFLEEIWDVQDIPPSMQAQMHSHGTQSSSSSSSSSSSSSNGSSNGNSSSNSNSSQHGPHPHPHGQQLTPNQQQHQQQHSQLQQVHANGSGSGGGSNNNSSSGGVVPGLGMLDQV

| Structure (SMILES) | 27-63 Rel Max FI [1] | CC50 [1] | Fold Induction Average, Z3 Assay (33 μM) [3, 5] | Fold Induction Average, AA_3T3 Assay (33 μM) [4] | CC50 [3] | Z3 Rel Max FI [3] | also measured |
| --- | --- | --- | --- | --- | --- | --- | --- |
| COc1cccc(C(=O)NC(C)(C(=O)c2ccc(F)c(C)c2)C(C)C)c1C (centres unmarked) [Example 56] | 0.06 | > 33 µM | – | – | – | – | EC50 [2]: > 33 µM; 13B3 Rel Max FI ([2]; maximum fold induction at any concentration relative to that of GS-E ligand): 0.00 |
| COc1cccc(C(=O)NC(C)(C(=O)c2cc(C)cc(C)c2)c2ccc(F)cc2)c1C (centres unmarked) [Example 73] | – | – | 4 | 1 | – | – | – |
| Cc1cc(C)cc(C(=O)C2(NC(=O)c3ccc4c(c3)COCO4)CCCCC2)c1 [Example 83] | 0.70 | 7.06 µM | – | – | 6.15 µM | 0.41 | – |
| CCc1c(C(=O)NC2(C(=O)c3cc(C)cc(C)c3)CCCC2)ccc2c1OCCO2 [Example 84] | 0.82 | 1.02 µM | – | – | 1.59 µM | 0.91 | – |
| Cc1cc(C)cc(C(=O)C2(NC(=O)c3ccc4c(c3C)OCO4)CCCC2)c1 [Example 85] | 0.94 | 3.86 µM | – | – | 4.76 µM | 0.67 | – |
| Cc1cc(C)cc(C(=O)C2(NC(=O)c3ccc4c(c3)OCCO4)CCCC2)c1 [Example 86] | 0.80 | 4.88 µM | – | – | 5.49 µM | 0.61 | – |
| Cc1cc(C)cc(C(=O)C2(NC(=O)c3ccc4c(c3)COCO4)CCCC2)c1 [Example 87] | 0.53 | 18.7 µM | – | – | 9.46 µM | 0.17 | – |
| Cc1cc(C)cc(C(=O)C2(NC(=O)c3ccccc3C)CCCC2)c1 [Example 89] | 0.07 | > 33 µM | – | 78 | – | – | LC50 (half-maximal ligand concentration for reporter induction) [4]: > 33 µM; AA_3T3 Rel Max FI [4]: 0.00 |
| CCC(=O)C(C)(C)NC(=O)c1ccccc1C [Example 124] | – | – | – | 2 | – | – | – |
| CCC(=O)C(C)(C)NC(=O)c1ccc(CC)cc1 [Example 125] | – | – | – | 1 | – | – | – |
| CCC(=O)C1(NC(=O)c2ccccc2C)CCCC1 [Example 132] | – | – | – | 1 | – | – | – |
| COc1cccc(C(=O)NC2(C(=O)c3cc(C)cc(C)c3)CCCC2)c1 [Example 137] | 0.21 | > 33 µM | – | 115 | – | – | LC50 (half-maximal ligand concentration for reporter induction) [4]: > 33 µM; AA_3T3 Rel Max FI [4]: 0.01 |
| Cc1ccccc1C(=O)NC1(C(=O)c2ccccc2)CCCC1 [Example 140] | 0.00 | > 33 µM | – | – | > 33 µM | 0.00 | – |
| O=C(NC1(C(=O)c2ccccc2)CCCC1)c1ccc2c(c1)OCO2 [Example 142] | 0.00 | > 33 µM | – | – | > 33 µM | 0.00 | – |
| COc1cccc(C(=O)NC2(C(=O)c3cc(C)cc(C)c3)CCNCC2)c1C [Example 147] | – | – | – | – | – | – | fold induction at 33 µM ([3]; single dose 33 μM, ligand treated / DMSO treated cells, read-out: Fold Induction Average, Z3 Assay (33 μM)): 1; fold induction at 33 µM ([1]; CHO, read-out: Fold Induction Average, 27-63 Assay (33 μM)): 1 |
| CCOC(=O)C(=O)N1CCC(NC(=O)c2cccc(OC)c2C)(C(=O)c2cc(C)cc(C)c2)CC1 [Example 150] | – | – | 3 | – | – | – | Fold Induction Average, 27-63 Assay (33 μM) [1]: 1 |
| COc1cccc(C(=O)NC2(C(=O)c3cc(C)cc(C)c3)CCN(S(C)(=O)=O)CC2)c1C [Example 151] | – | – | 3 | – | – | – | Fold Induction Average, 27-63 Assay (33 μM) [1]: 1 |
| CCOC(=O)CN1CCC(NC(=O)c2cccc(OC)c2C)(C(=O)c2cc(C)cc(C)c2)CC1 [Example 152] | – | – | 6 | – | – | – | Fold Induction Average, 27-63 Assay (33 μM) [1]: 3 |
| COc1cccc(C(=O)NC2(C(=O)c3cc(C)cc(C)c3)CCN(C(=O)OC(C)C)CC2)c1C [Example 158] | – | – | 4 | 1 | – | – | – |
| COc1cccc(C(=O)NC2(C(=O)c3cc(C)cc(C)c3)CCN(CC#N)CC2)c1C [Example 159] | – | – | 2 | – | – | – | Fold Induction Average, 27-63 Assay (33 μM) [1]: 1 |
